Data published in ChEMBL document CHEMBL3407416, “Discovery of (R)-8-(1-(3,5-difluorophenylamino)ethyl)-N,N-dimethyl-2-morpholino-4-oxo-4H-chromene-6-carboxamide (AZD8186): a potent and selective inhibitor of PI3Kβ and PI3Kδ for the treatment of PTEN-deficient cancers” (J Med Chem, 2015).

Tests used:
[1] = Lipophilicity, log D of the compound at pH 7.4 by shake-flask method; type: physicochemical; details: buffer
[2] = biological target: T1, Phosphatidylinositol 4,5-bisphosphate 3-kinase catalytic subunit beta isoform (Homo sapiens, UniProt P42338); assay: Inhibition of human recombinant PI3Kbeta using PIP2 by Kinase-Glo Plus assay
[3] = biological target: Phosphatidylinositol 4,5-bisphosphate 3-kinase catalytic subunit gamma isoform (Homo sapiens, UniProt P48736); assay: Inhibition of human recombinant PI3Kgamma using PIP2 by Kinase-Glo Plus assay
[4] = biological target: T1, Phosphatidylinositol 4,5-bisphosphate 3-kinase catalytic subunit beta isoform; assay: Inhibition of PI3Kbeta in PTEN-null human MDA-MB-468 cells assessed as inhibition of Akt phosphorylation after 2 hrs; type: cell-based
[5] = biological target: T2, Phosphatidylinositol 4,5-bisphosphate 3-kinase catalytic subunit alpha isoform (Homo sapiens, UniProt P42336); assay: Inhibition of human recombinant PI3Kalpha using PIP2 by Kinase-Glo Plus assay
Target sequence in this assay (P42336 whole entry, canonical isoform): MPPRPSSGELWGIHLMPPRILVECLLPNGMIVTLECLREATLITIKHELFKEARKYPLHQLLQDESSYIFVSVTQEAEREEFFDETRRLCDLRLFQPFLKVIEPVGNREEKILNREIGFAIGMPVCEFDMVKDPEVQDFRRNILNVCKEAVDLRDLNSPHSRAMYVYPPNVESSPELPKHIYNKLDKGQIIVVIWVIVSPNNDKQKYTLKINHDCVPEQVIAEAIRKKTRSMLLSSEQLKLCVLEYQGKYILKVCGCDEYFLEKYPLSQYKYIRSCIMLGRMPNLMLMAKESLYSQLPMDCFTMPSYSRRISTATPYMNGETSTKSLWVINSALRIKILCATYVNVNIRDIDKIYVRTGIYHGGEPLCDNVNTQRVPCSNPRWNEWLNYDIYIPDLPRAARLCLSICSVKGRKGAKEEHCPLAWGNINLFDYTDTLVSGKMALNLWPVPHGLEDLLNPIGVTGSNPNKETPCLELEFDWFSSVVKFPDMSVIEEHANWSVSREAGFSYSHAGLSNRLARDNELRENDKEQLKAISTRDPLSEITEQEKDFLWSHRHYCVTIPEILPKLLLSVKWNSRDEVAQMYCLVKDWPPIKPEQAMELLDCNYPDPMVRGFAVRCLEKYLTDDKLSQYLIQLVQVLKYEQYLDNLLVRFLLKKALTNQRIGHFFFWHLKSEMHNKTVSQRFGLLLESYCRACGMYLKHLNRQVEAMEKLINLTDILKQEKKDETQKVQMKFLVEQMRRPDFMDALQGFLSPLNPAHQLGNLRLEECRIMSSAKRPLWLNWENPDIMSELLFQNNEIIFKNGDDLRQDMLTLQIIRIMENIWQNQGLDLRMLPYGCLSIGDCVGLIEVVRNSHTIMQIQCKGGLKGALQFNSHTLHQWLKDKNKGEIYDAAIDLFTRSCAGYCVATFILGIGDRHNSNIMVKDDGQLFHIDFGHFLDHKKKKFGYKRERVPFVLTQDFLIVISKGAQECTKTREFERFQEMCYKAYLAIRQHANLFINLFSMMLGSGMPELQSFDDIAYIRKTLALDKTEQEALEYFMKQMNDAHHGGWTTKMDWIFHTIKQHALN

[6] = Intrinsic clearance in cryopreserved human hepatocytes measured per 10^6 cells; type: ADME, cell-based, Hepatocyte; details: read-out: CLH
[7] = biological target: T2, Phosphatidylinositol 4,5-bisphosphate 3-kinase catalytic subunit alpha isoform; assay: Inhibition of PI3Kalpha mutant human BT474 cells assessed as inhibition of Akt phosphorylation at […] after 2 hrs; type: cell-based; details: bt-474
Target sequence in this assay (P42336 whole entry, looked up, canonical isoform): as the sequence (P42336 whole entry, canonical isoform) above

[8] = biological target: T3, Phosphatidylinositol 4,5-bisphosphate 3-kinase catalytic subunit delta isoform (Homo sapiens, UniProt O00329); assay: Inhibition of human recombinant PI3Kdelta using PIP2 by Kinase-Glo Plus assay
T3 sequence (O00329 whole entry): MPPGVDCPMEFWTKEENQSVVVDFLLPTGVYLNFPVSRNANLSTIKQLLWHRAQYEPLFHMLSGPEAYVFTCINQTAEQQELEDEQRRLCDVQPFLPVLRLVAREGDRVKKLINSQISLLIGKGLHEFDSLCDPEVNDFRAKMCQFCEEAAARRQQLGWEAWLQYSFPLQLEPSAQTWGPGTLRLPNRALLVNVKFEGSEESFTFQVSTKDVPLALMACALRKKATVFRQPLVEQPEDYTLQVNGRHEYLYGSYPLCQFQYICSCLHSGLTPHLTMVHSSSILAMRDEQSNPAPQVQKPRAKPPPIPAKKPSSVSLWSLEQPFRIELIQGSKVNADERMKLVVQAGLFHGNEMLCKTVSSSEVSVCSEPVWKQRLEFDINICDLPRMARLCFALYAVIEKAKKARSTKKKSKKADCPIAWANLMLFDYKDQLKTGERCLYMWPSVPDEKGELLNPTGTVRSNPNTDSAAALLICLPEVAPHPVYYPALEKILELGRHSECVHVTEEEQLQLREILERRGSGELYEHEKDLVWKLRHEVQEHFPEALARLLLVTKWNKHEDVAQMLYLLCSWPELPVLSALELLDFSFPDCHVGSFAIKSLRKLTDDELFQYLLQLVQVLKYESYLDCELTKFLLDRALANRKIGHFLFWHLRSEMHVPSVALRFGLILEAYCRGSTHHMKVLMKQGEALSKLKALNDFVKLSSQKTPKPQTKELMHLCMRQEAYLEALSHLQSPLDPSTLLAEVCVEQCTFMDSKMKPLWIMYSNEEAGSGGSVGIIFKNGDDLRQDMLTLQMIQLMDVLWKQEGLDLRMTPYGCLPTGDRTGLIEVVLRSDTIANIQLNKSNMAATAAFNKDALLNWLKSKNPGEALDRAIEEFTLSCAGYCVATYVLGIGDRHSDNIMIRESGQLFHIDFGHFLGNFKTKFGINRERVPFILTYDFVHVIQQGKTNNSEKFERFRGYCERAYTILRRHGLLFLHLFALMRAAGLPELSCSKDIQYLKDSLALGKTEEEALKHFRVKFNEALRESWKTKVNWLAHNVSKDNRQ

[9] = Apparent permeability from apical to basolateral side of human Caco2 cells; type: ADME, cell-based; details: Caco-2, read-out: permeability

T1 sequence (P42338 whole entry, canonical isoform): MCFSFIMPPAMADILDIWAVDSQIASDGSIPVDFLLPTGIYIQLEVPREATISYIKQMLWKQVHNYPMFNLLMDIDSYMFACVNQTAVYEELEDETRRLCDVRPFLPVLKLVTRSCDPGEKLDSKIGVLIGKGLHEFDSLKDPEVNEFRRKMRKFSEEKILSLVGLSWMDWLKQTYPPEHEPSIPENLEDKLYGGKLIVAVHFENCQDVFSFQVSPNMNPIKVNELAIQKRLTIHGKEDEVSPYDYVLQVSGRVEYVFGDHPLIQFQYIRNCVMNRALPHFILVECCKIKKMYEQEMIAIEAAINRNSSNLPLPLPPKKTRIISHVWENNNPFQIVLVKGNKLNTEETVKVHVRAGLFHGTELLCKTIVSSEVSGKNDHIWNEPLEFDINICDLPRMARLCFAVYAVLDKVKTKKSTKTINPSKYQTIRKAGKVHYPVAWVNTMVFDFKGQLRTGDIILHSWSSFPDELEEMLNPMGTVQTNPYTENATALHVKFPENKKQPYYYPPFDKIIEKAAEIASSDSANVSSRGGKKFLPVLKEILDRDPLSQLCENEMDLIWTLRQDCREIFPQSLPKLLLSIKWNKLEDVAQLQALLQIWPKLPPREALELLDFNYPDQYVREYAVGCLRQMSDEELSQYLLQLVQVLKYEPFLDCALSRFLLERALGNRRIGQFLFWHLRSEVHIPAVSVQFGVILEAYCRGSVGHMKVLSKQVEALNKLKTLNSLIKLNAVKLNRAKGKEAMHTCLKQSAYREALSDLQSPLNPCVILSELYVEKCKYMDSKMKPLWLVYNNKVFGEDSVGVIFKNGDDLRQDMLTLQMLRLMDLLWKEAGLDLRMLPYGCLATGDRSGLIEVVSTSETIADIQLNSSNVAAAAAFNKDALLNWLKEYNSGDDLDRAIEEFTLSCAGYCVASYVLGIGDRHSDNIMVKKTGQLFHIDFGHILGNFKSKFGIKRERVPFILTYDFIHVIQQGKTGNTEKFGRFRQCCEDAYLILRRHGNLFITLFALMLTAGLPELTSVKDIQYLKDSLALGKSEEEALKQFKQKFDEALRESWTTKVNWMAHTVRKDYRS
Sequence of Phosphatidylinositol 4,5-bisphosphate 3-kinase catalytic subunit gamma isoform (P48736 whole entry, canonical isoform): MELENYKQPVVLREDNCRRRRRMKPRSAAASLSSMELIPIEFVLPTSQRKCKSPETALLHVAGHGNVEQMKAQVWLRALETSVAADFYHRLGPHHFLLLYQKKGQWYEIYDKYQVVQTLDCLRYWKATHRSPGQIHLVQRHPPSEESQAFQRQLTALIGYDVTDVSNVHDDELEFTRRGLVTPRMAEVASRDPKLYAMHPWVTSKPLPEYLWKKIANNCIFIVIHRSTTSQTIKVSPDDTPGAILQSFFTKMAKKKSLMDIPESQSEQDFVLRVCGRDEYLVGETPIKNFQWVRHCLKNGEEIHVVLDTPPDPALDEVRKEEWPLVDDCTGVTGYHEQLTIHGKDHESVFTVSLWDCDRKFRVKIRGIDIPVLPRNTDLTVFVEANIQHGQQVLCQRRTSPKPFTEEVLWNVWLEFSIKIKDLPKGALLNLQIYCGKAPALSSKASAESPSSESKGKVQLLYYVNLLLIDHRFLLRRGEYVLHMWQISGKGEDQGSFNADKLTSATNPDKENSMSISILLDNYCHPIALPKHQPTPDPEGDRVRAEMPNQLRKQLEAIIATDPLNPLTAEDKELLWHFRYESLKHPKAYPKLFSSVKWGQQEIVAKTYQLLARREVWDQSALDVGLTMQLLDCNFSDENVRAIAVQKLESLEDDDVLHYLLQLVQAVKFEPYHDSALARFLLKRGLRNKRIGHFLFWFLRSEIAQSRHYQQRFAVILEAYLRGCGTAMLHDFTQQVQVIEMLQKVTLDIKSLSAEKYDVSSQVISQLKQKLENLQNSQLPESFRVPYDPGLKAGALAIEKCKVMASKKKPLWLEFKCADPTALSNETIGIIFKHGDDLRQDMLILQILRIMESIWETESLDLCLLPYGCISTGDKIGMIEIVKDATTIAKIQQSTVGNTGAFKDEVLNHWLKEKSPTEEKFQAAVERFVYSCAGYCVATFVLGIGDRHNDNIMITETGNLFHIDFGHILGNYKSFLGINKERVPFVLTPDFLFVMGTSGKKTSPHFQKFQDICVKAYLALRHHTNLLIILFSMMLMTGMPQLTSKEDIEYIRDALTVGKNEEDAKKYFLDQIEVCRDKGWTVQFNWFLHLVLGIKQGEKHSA

Row | Compound | logD [1] | IC50 [2] [nM] | IC50 [3] [nM] | IC50 [4] [nM] | IC50 [5] [nM] | hepatocyte CLint [6] [µL/min/1e6 cells] | IC50 [7] [nM] | IC50 [8] [nM] | Papp A→B [9] [×10⁻⁶ cm/s]
1 | CCNC(=O)c1cc(C(C)Nc2cc(F)cc(F)c2)c2oc(N3CCOCC3)cc(=O)c2c1 (racemic) | 3.1 | 9 | 710 | 14 | 59 | < 4 | 2900 | 44 | –
2 | CCN(CC)C(=O)c1cc(C(C)Nc2cc(F)cc(F)c2)c2oc(N3CCOCC3)cc(=O)c2c1 (racemic) | 3.2 | 10 | 1200 | 16 | 150 | 17 | 3200 | 71 | –
3 | CCN(C)C(=O)c1cc(C(C)Nc2cc(F)cc(F)c2)c2oc(N3CCOCC3)cc(=O)c2c1 (racemic) | 2.5 | 8 | 930 | 7 | 110 | 5 | 2100 | 59 | –
4 | COCCN(C)C(=O)c1cc(C(C)Nc2cc(F)cc(F)c2)c2oc(N3CCOCC3)cc(=O)c2c1 (racemic) | 2.2 | 11 | 2600 | – | 290 | 6 | 2600 | 160 | –
5 | CC(Nc1cc(F)cc(F)c1)c1cc(C(=O)N(C)CCO)cc2c(=O)cc(N3CCOCC3)oc12 (racemic) | 1.5 | 10 | 530 | 15 | 90 | < 3 | 6900 | 62 | 1
6 | CC(Nc1cc(F)cc(F)c1)c1cc(C(=O)N2CCCC2)cc2c(=O)cc(N3CCOCC3)oc12 (racemic) | 2.7 | 9 | 700 | 2 | 98 | 6 | 400 | 50 | 8.5
7 | CC(Nc1ccc(F)cc1)c1cc(C(=O)N(C)C)cc2c(=O)cc(N3CCOCC3)oc12 (racemic) | 1.5 | 18 | 13000 | 128 | 810 | < 3 | 12400 | 110 | –
8 | C[C@H](Nc1cc(F)cc(F)c1)c1cc(C(=O)N(C)C)cc2c(=O)cc(N3CCO[C@@H](C)C3)oc12 | 2.6 | 9 | 2900 | 12 | 130 | < 3 | 2600 | 79 | –
9 | CC(c1cc(C(=O)N2CCCC2)cc2c(=O)cc(N3CCOCC3)oc12)N(C)c1cc(F)cc(F)c1 (racemic) | 3.1 | 13 | 3500 | 100 | 510 | 12 | 5900 | 120 | –
10 | CC(Nc1ccc(F)c(Cl)c1)c1cc(C(=O)N(C)C)cc2c(=O)cc(N3CCOCC3)oc12 (racemic) | 2.4 | 12 | 1800 | 16 | 170 | 8 | 5500 | 64 | –
11 | CC(Nc1cccc(F)c1)c1cc(C(=O)N(C)C)cc2c(=O)cc(N3CCOCC3)oc12 (racemic) | 1.9 | 12 | 2600 | 32 | 220 | < 3 | 2400 | 73 | –
12 | C[C@@H](Nc1cc(F)cc(F)c1)c1cc(C(=O)N2CCC2)cc2c(=O)cc(N3CCOCC3)oc12 | 2.6 | – | 350 | – | 29 | < 3 | 280 | 20 | 9.2
13 | C[C@@H](Oc1cc(F)cc(F)c1)c1cc(C(=O)N(C)C)cc2c(=O)cc(N3CCOCC3)oc12 | 2.2 | 17 | 13000 | 132 | 970 | 7 | 7400 | 160 | 31
14 | CC(Nc1cc(F)ccc1F)c1cc(C(=O)N(C)C)cc2c(=O)cc(N3CCOCC3)oc12 (racemic) | 1.8 | 19 | 6000 | 60 | 450 | 6 | 7000 | 150 | 12
15 | CC(Nc1cc(F)cc(F)c1)c1cc(C(=O)N2CCCCC2)cc2c(=O)cc(N3CCOCC3)oc12 (racemic) | 3.1 | 12 | 1000 | 14 | 200 | 21 | 3100 | 59 | –
16 | CC(Nc1cccc(F)c1F)c1cc(C(=O)N(C)C)cc2c(=O)cc(N3CCOCC3)oc12 (racemic) | 1.9 | 13 | 4200 | 24 | 370 | < 3 | 2200 | 76 | 13
17 | CC(Nc1cc(F)cc(F)c1)c1cc(C(=O)N2CCOCC2)cc2c(=O)cc(N3CCOCC3)oc12 (racemic) | 1.7 | 11 | 2400 | 33 | 300 | < 3 | 6000 | 115 | 4.8
18 | COc1cc(F)cc(NC(C)c2cc(C(=O)N(C)C)cc3c(=O)cc(N4CCOCC4)oc23)c1 (racemic) | 1.9 | 10 | 1600 | 15 | 160 | < 3 | 1700 | 61 | –
19 | CC(Nc1cccc(Cl)c1)c1cc(C(=O)N(C)C)cc2c(=O)cc(N3CCOCC3)oc12 (racemic) | 2.5 | 10 | 700 | 9 | 85 | < 4 | 790 | 73 | –
20 | C[C@@H](Nc1cc(F)c(F)c(F)c1)c1cc(C(=O)N(C)C)cc2c(=O)cc(N3CCOCC3)oc12 | – | – | 1400 | – | 110 | < 4 | 1500 | 23 | –
21 | CN(C)C(=O)c1cc(CN(C)c2cc(F)cc(F)c2)c2oc(N3CCOCC3)cc(=O)c2c1 | 2.6 | – | – | – | – | < 5 | – | – | 36
22 | Cc1cc(F)cc(NC(C)c2cc(C(=O)N(C)C)cc3c(=O)cc(N4CCOCC4)oc23)c1 (racemic) | 2.2 | 15 | 2200 | 49 | 130 | 6 | 2900 | 110 | –
23 | CNC(=O)c1cc([C@@H](C)Nc2cc(F)cc(F)c2)c2oc(N3CCOCC3)cc(=O)c2c1 | 2.8 | 6 | 250 | 3 | 18 | < 3 | 960 | 14 | 3.5
24 | CC(Nc1cc(F)cc(F)c1)c1cc(C(=O)N2CCC(O)CC2)cc2c(=O)cc(N3CCOCC3)oc12 (racemic) | 1.8 | 11 | 830 | 17 | 230 | < 3 | 6400 | 90 | 1
25 | CC(Nc1cc(Cl)cc(Cl)c1)c1cc(C(=O)N(C)C)cc2c(=O)cc(N3CCOCC3)oc12 (racemic) | 3.2 | 10 | 630 | 17 | 110 | 18 | 1900 | 52 | –
26 | COCCNC(=O)c1cc(C(C)Nc2cc(F)cc(F)c2)c2oc(N3CCOCC3)cc(=O)c2c1 (racemic) | 2.1 | 9 | 520 | 31 | 57 | < 3 | 13000 | 54 | 0.28
